Measurements: patent publication US20140024638A1, “TREATMENT OF COGNITIVE DYSFUNCTION IN SCHIZOPHRENIA” (TARGACEPT, INC., priority 2011, published 2014)

What was measured:
[1] = water solubility (salt screening); format: physicochemical
[2] = hygroscopicity (salt screening); format: physicochemical

Structure (SMILES) | water solubility [1] | hygroscopicity [2]
Cc1ccc(S(=O)(=O)O)cc1.O=C(N[C@@H]1C2CCN(CC2)[C@H]1Cc1cccnc1)c1cc2ccccc2o1 [p-toluenesulfonic acid salt, (2S,3R)—N-(2-((3-pyridinyl)methyl)-1-azabicyclo[2.2.2]oct-3-yl)benzofuran-2-carboxamide p-toluenesulfonate] | good | low
O=C(N[C@@H]1C2CCN(CC2)[C@H]1Cc1cccnc1)c1cc2ccccc2o1.O=P(O)(O)O [phosphoric acid salt] |  | low
